Measurements reported in patent US20090269352A1, “ANTITUMOR AGENT COMPRISING SULFONAMIDE-CONTAINING HETEROCYCLIC COMPOUND COMBINED WITH AN ANGIOGENESIS INHIBITOR” (priority 2002, published 2009).

Legend:
[1] = system: KP-1 cells; assay: Mouse model with grown cancer, KP-1; format: in vivo, mice (KSN Slc, female); conditions: KP-1 tumor; oral, 2 weeks; relative tumor volume treated/control
Method: (§1) 1×10^7 KP-1 or Colo320DM cells/0.1 ml PBS/mouse were inoculated subcutaneously to mice (KSN Slc, female). From 1 to 2 weeks after the transplantation, 0.5% aqueous methyl cellulose solution, E7820 (0.5% methyl cellulose suspension: 50, 100, 200 mg/kg: twice a day), or ZD6474 (0.5% methyl cellulose suspension: 50, 100 mg/kg: once a day), or both of E7820 (50, 100, 200 mg/kg: twice a day) and ZD6474 (50, 100 mg/kg: once a day), were orally administered for 2 weeks. The transplanted tumor volume was measured twice every week, and the relative tumor volume was calculated according to the following equation: Relative tumor volume=tumor volume on the day after last administration/tumor volume at first administration.
(§2) The antitumor effect was expressed in T/C % (T/C %=relative tumor volume in the chemical administration group/relative tumor volume in the control group).

[2] = system: KP-1 or Colo320DM cells; assay: Mouse model with grown cancer (FIG. 1, tumor not given); format: in vivo, mice (KSN Slc, female); conditions: oral, 2 weeks
Method: as §1, §2

[3] = system: Colo320DM cells; assay: Mouse model with grown cancer, Colo320DM; format: in vivo, mice (KSN Slc, female); conditions: Colo320DM tumor; oral, 2 weeks; relative tumor volume treated/control
Method: as §1, §2

[4] = system: Human umbilical vein endothelial cells (HUVEC); assay: Tube formation of endothelial cell, FGF inhibitor wells, combination with E7820; format: cell-based; conditions: inhibition rate (fa) 0.5, 10 ng/ml EGF and 20 ng/ml bFGF
Method: (§5) 400 μl of type I collagen gel (Nitta Gelatin) were added onto each well of a 24-well plate (FALCON) and gelled at 37° C. in a CO2 incubator for 40 min. A serum-free medium (human endothelial-SFM basal growth medium; GIBCO BRL) containing 20 ng/ml EGF (GIBCO BRL) was prepared, and 200 μl of this medium solution were added onto each well containing the type I collagen gel. Human umbilical vein endothelial cells (HUVEC) were suspended in a serum-free medium (human endothelial-SFM basal growth medium; GIBCO BRL) to prepare a cell suspension at a density of 5×10^5 cells/ml. 200 μl of this suspension were put into each well containing the type I collagen gel and serum-free medium, and cultured overnight.
(§6) After incubation, […] of 3.3 mg/ml MTT (SIGMA) were added into each well and reacted at 37° C. in a CO2 incubator for 3 hours to stain the cells. Under a microscope (SZX12 manufactured by OLYMPUS), an image of a tube formed by HUVEC was incorporated (M-3204C manufactured by OLYMPUS). The tube length in the incorporated image was measured by image analysis software Mac SCOPE 2.56 (manufactured by MITANI) to quantify the tube formation of HUVEC.

[5] = system: Human umbilical vein endothelial cells; assay: Proliferation of FGF-induced endothelial cells, combination with E7820; format: cell-based; conditions: inhibition rate (fa) 0.5, 20 ng/ml bFGF; for Combination index (CI): formula of Chou et al.
Method: (§3) On the next day, ½ serial dilutions of FGF receptor kinase inhibitors (PD166866, PD173074) or FGF antibody as FGF inhibitors, ½ serial dilutions of E7820, and dilutions containing two of the above substances were prepared respectively, and each dilution was added in a volume of 100 μl/well to each well containing the cultured human umbilical vein endothelial cells, and the cells were further cultured.
(§4) After 3 days, 5 ml cell counting kit solution (Wako Pure Chemical Industries, Ltd.) were diluted with PBS to give 40 ml dilution, and 50 μl of this dilution were added to each well, then incubated at 37° C. for 3 to 4 hours and measured for its absorbance at 415 nm by a plate reader (Corona Denki Co., Ltd.).

[6] = system: Human umbilical vein endothelial cells; assay: Proliferation of VEGF-induced endothelial cells, combination with E7820; format: cell-based; conditions: inhibition rate (fa) 0.5, 20 ng/ml VEGF; for Combination index (CI): formula of Chou et al.
Method: as §3, with “VEGF” for “FGF”, “(ZD6474, ZD4190, SU5416, SU6668)” for “(PD166866, PD173074)”, “inhibitors, ½ serial dilutions of VEGF antibody,” for “inhibitors,”
as §4

[7] = system: Human umbilical vein endothelial cells (HUVEC); assay: Tube formation of endothelial cell, VEGF inhibitor wells, combination with E7820
Method: as §5, §6

Cc1ccc(NS(=O)(=O)c2cccc(C#N)c2)c2[nH]cc(C#N)c12 [E7820]
T/C % [1]: 83% | Tumor growth / antitumor effect (FIG. 1) [2]: tumor growth was inhibited | T/C % [3]: 60%

COc1cc(OC)cc(-c2cc3cnc(N)nc3nc2NC(=O)NC(C)(C)C)c1 [PD166866]
Combination effect [4]: Synergistic | Combination effect [5]: Synergistic | Combination index (CI) [5]: 0.5

CCN(CC)CCCCNc1ncc2cc(-c3cc(OC)cc(OC)c3)c(NC(=O)NC(C)(C)C)nc2n1 [PD173074]
Combination effect [5]: Synergistic | Combination index (CI) [5]: 0.4

Cc1cc(C)c(/C=C2\C(=O)Nc3ccccc32)[nH]1 [SU5416]
Combination effect [6]: Synergistic | Combination index (CI) [6]: 0.4

Cc1[nH]c(/C=C2\C(=O)Nc3ccccc32)c(C)c1CCC(=O)O [SU6668]
Combination effect [6]: Synergistic | Combination index (CI) [6]: 0.5

COc1cc2c(Nc3ccc(Br)cc3F)ncnc2cc1OCCn1ccnn1 [ZD4190]
Combination effect [6]: Synergistic | Combination index (CI) [6]: 0.3

COc1cc2c(Nc3ccc(Br)cc3F)ncnc2cc1OCC1CCN(C)CC1 [ZD6474]
T/C % [1]: 47% | Tumor growth / antitumor effect (FIG. 1) [2]: tumor growth was inhibited | T/C % [3]: 56% | Combination effect ([7]; inhibition rate (fa) 0.5, 10 ng/ml EGF and 20 ng/ml VEGF): Synergistic | Combination index (CI) ([7]; inhibition rate (fa) 0.5, tube length, 10 ng/ml EGF and 20 ng/ml VEGF): 0.4 | Combination effect [6]: Synergistic | Combination index (CI) [6]: 0.4
